Consider 8 molecules from ChEMBL document CHEMBL1201862, “PubChem BioAssay data set” (2004).

Among the test systems are SNB-19; SNB-75; CAKI-1; HCT-15; MOLT-4; SF-539; HOP-92; UO-31; HL-60; HOP-62; HT-29; OVCAR-3; HCC 2998; NCI/ADR-RES; COLO 205; RPMI-8226; SK-MEL-28; T47D; MDA-MB-435; SF-295.
Holding throughout (assay): inhibition of tumour cell growth, NCI panel, 48 h

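Method: 48-hour compound exposure of cells in 96-well plates, five concentrations, linear interpolation of endpoints. At the GI50, growth is halved.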 Activity calls are given as the source filed them. Cut-off read from the data, not from the text of the source: active = GI50 up to about 1.1 µM and inactive = higher.

Take `O=C(O)CCN(CCC(=O)O)c1ccc(/C=C2\SC(=S)NC2=O)cc1`: the GI50 is > 100 µM (inactive) with SNB-19; > 100 µM (inactive) with SNB-75; > 100 µM (inactive) in the test on CAKI-1; greater than 100 µM with HCT-15; > 100 µM (inactive) with MOLT-4; > 100 µM (inactive) in the test with SF-539. Also, the GI50 in the test on HOP-92, with UO-31, with HL-60, with HOP-62, with HT-29 and with OVCAR-3 was > 100 µM (inactive) in each case. For the same molecule, the GI50 in the test on HCC 2998, with NCI/ADR-RES, with COLO 205, in the test on RPMI-8226, with SK-MEL-28 and in the test on T47D was > 100 µM (inactive) throughout. Also, the GI50 in the test with MDA-MB-435 and in the test on SF-295 was > 100 µM (inactive) each time.
Take `Cc1ccc(C2(c3ccc(Cl)cc3)c3ccccc3C3=NCCN32)cc1` (stereo not drawn): the GI50 in the test on SNB-19 is 13.7 µM (inactive); in the test with SNB-75 it was 12.2 µM (inactive); in the test with CAKI-1, 21.5 µM (inactive); in the test on HCT-15 it was 11.6 µM; with MOLT-4, 3.66 µM (inactive); in the test on HOP-92, 6.04 µM (inactive). Moreover, the GI50 with UO-31 was 3.37 µM (inactive); in the test on HL-60, 6.79 µM (inactive); in the test with HOP-62 it was 9.68 µM (inactive); in the test with HT-29, 1.89 µM (inactive); in the test with OVCAR-3, 10.3 µM (inactive); in the test on HCC 2998, 5.58 µM (inactive). The GI50 in the test on NCI/ADR-RES was 10 µM (inactive); with COLO 205 it was 4.6 µM (inactive); in the test on RPMI-8226, 7.16 µM (inactive); in the test on SK-MEL-28, 14.7 µM (inactive); in the test on T47D it was 15.7 µM (inactive); with MDA-MB-435 it was 2.86 µM (inactive). Further, in the test with SF-295, the GI50 was 1.59 µM (inactive).
`COc1cccc2nc3ccccc3nc12`: the GI50 was 94.6 µM (inactive) with SNB-19; 60 µM (inactive) in the test on SNB-75; 61 µM (inactive) with CAKI-1; 39.1 µM in the test with HCT-15; 60.8 µM (inactive) with MOLT-4; 84.5 µM (inactive) in the test with SF-539. The GI50 with HOP-92 was 33 µM (inactive); in the test with UO-31, 36 µM (inactive); with HL-60, > 100 µM (inactive); in the test with HOP-62 it was > 100 µM (inactive); in the test on HT-29, 46.3 µM (inactive); in the test with OVCAR-3 it was 91 µM (inactive). For the same molecule, the GI50 in the test on HCC 2998 is 79.4 µM (inactive); in the test with NCI/ADR-RES, > 100 µM (inactive); in the test on COLO 205 it was 90.2 µM (inactive); in the test on RPMI-8226, 17 µM (inactive); in the test with SK-MEL-28, > 100 µM (inactive); with T47D, 76 µM (inactive). In addition, the GI50 in the test with MDA-MB-435 is > 100 µM (inactive); in the test on SF-295 it was 80 µM (inactive).
Regarding `N=c1c2c3n(c4c(=O)n(-c5ccccc5)c(=S)n(c(=O)n1-c1ccccc1)c24)CCCCC3`, the GI50 with SNB-19 was > 100 µM (inactive); in the test with SNB-75, > 63.1 µM (inactive); with CAKI-1, > 100 µM (inactive); in the test on HCT-15, greater than 100 µM; in the test with SF-539, > 89.7 µM (inactive); with HOP-92, > 100 µM (inactive). Further, the GI50 is > 100 µM (inactive) in the test with UO-31; > 100 µM (inactive) in the test on HL-60; 99.3 µM (inactive) with HOP-62; > 100 µM (inactive) in the test with HT-29; > 100 µM (inactive) with OVCAR-3; > 100 µM (inactive) in the test on HCC 2998. Further, the GI50 in the test with NCI/ADR-RES is > 100 µM (inactive); in the test with COLO 205, > 100 µM (inactive); in the test on SK-MEL-28, > 100 µM (inactive); in the test on T47D, 55.6 µM (inactive); with MDA-MB-435, > 100 µM (inactive); with SF-295, > 100 µM (inactive).
For `CCN(CC)C(=O)c1cc([N+](=O)[O-])c(=O)n2c1[nH]c1ccccc12`, the GI50 in the test with SNB-19, in the test on SNB-75, with CAKI-1, in the test on MOLT-4, with SF-539 and in the test on HOP-92 was > 100 µM (inactive) each time. For the same molecule, the GI50 in the test with UO-31, in the test with HL-60, with HOP-62, in the test on HT-29, in the test on OVCAR-3 and in the test on HCC 2998 was > 100 µM (inactive) in each case. Also, the GI50 with NCI/ADR-RES, in the test on COLO 205, with RPMI-8226, in the test on SK-MEL-28, in the test on T47D and in the test on MDA-MB-435 was > 100 µM (inactive) each time. In addition, the GI50 with SF-295 was > 100 µM (inactive).
Take `CCSc1nc(C)nc2c1sc1nc3ccccc3n12`: the GI50 in the test on SNB-19 is > 100 µM (inactive); in the test with SNB-75, > 94 µM (inactive); in the test on CAKI-1, > 100 µM (inactive); in the test with HCT-15 it was greater than 100 µM; with MOLT-4 it was > 100 µM (inactive); in the test with SF-539, > 100 µM (inactive). In addition, the GI50 with HOP-92 is > 100 µM (inactive); in the test on UO-31, > 100 µM (inactive); in the test with HL-60, > 28.1 µM (inactive); with HT-29 it was > 100 µM (inactive); with OVCAR-3, > 100 µM (inactive); in the test on HCC 2998, > 100 µM (inactive). In addition, the GI50 with NCI/ADR-RES, with COLO 205, in the test with RPMI-8226, in the test on SK-MEL-28, with T47D and in the test on MDA-MB-435 was > 100 µM (inactive) throughout. The GI50 in the test on SF-295 is > 100 µM (inactive).
`Cc1cc(S(=O)(=O)Nc2nc(-c3ccccn3)n[nH]2)c(S)cc1Cl`: the GI50 was 16.9 µM (inactive) in the test with SNB-19; 28.1 µM (inactive) with SNB-75; 5.21 µM (inactive) in the test with CAKI-1; 5.68 µM in the test on HCT-15; 22.7 µM (inactive) in the test on MOLT-4; 21.7 µM (inactive) in the test with SF-539. Also, the GI50 in the test with HOP-92 is 19 µM (inactive); in the test with UO-31 it was 2.67 µM (inactive); with HL-60, 16.1 µM (inactive); in the test on HOP-62, 9.75 µM (inactive); with HT-29, 15.3 µM (inactive); in the test with OVCAR-3, 17.2 µM (inactive). Moreover, the GI50 with HCC 2998 was 15 µM (inactive); in the test with NCI/ADR-RES it was 6.5 µM (inactive); with COLO 205 it was 25.9 µM (inactive); in the test on RPMI-8226, 33.7 µM (inactive); in the test with SK-MEL-28, 35.1 µM (inactive); with T47D, 15.3 µM (inactive). In the test on MDA-MB-435, the GI50 was 25.1 µM (inactive).
For `Cc1ccc(Cc2n[nH]c(=O)[nH]2)cc1`, the GI50 with SNB-19 is > 100 µM (inactive); in the test with SNB-75, > 100 µM (inactive); in the test on CAKI-1, > 100 µM (inactive); in the test on HCT-15 it was greater than 100 µM; with MOLT-4 it was > 100 µM (inactive); in the test with SF-539, > 100 µM (inactive). Further, the GI50 in the test with HOP-92, in the test with UO-31, in the test with HL-60, in the test with HOP-62, with HT-29 and in the test on OVCAR-3 was > 100 µM (inactive) throughout. The GI50 in the test on HCC 2998, in the test on NCI/ADR-RES, in the test on COLO 205, in the test on SK-MEL-28, in the test with T47D and with MDA-MB-435 was > 100 µM (inactive) in each case. In the test with SF-295, the GI50 was > 100 µM (inactive).
